Tests used:
[1] = target: CSF1R (Homo sapiens, UniProt P07333); experiment: AlphaScreen kinase assay; assay type: biochemical; conditions: ATP Km
Method: (§1) For RAF kinases, detailed assay information was described in ref.[18] Briefly, the kinase activity of BRAF WT, BRAF V600E, or CRAF was measured using an AlphaScreen assay (Perkin Elmer, MA) monitoring MEK1/2 phosphorylation at Ser217/221. For CDK2 and CDK4 kinases, activity was also measured by AlphaScreen, monitoring phosphorylation of biotin Rb peptide at Ser780. Similarly, MAP3K7, CSF1R and JAK2 kinase activity was measured by phosphorylation of their biotinylated substrates MKK6 kinase dead protein at Ser271/Thr275, or tyrosine phosphorylation of pEY or Tyk2 Tyr1054/1055 peptides, respectively. CSK, IGF1R, EGFR, FGFR1 and SRC kinase activity was measured using a sandwich ELISA detecting phosphorylated poly EAY peptide with a HRP conjugated phosphotyrosine antibody and TMB substrate, while p38 kinase activity was measured by monitoring phosphorylation of MBP protein with radiolabeled ^33P-ATP in a filter binding format. All assays were screened under respective ATP Km conditions and inhibitor IC50s were derived from either 5 (RAF kinases, CDK2, CDK4, MAP3K7, JAK2), 10 (CSK, IGF1R, EGFR, FGFR1, SRC) or 11 (p38, CSF1R) point compound dose response.

[2] = target: JAK2 (Homo sapiens, UniProt O60674); experiment: AlphaScreen kinase assay; assay type: biochemical; conditions: ATP Km
Method: as §1

[3] = target: MAP3K7 (Homo sapiens, UniProt O43318); experiment: AlphaScreen kinase assay; assay type: biochemical; conditions: ATP Km
MAP3K7, sequence (O43318 whole entry, species assumed): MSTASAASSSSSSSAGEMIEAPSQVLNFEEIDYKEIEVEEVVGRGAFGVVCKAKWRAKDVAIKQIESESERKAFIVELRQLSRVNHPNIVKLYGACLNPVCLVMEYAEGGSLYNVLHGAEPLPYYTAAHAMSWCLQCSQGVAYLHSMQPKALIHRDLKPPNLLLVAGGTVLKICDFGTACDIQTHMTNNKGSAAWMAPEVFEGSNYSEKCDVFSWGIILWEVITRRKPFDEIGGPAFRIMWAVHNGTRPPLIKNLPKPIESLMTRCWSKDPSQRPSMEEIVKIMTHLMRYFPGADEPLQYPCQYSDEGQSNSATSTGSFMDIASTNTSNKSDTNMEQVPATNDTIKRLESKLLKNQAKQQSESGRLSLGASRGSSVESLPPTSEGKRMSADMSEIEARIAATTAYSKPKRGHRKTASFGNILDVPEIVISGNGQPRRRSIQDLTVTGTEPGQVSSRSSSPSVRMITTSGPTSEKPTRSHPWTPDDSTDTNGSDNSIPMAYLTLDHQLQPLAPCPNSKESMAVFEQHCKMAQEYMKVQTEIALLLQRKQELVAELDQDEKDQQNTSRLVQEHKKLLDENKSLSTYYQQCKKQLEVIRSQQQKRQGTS
MAP3K7, sequence (Q15750 whole entry partner, species assumed): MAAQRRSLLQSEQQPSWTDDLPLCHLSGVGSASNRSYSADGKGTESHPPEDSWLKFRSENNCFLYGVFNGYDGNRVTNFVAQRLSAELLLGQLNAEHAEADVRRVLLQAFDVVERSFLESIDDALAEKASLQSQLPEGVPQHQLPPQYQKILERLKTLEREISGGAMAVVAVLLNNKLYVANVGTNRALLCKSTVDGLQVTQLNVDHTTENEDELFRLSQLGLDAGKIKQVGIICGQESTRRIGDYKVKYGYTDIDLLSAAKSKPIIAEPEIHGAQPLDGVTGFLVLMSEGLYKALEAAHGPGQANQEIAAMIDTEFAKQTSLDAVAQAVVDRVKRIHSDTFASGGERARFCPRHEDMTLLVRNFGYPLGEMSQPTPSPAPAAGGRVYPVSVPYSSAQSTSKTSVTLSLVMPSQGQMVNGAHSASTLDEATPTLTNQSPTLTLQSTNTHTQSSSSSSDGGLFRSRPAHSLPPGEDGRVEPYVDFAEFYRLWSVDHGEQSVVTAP
Method: as §1

[4] = tested on: A375 cells; experiment: Western blot p-p38; assay type: cell-based, human; conditions: A375 (BRAF V600E), 75 min
Method: For western-blotting in A375, A549 and MC-F7 cell lines, the detailed method was described in ref.[18] […] For western-blot in selected CRC cell lines, the cells were collected after treatment for indicated time and washed twice with cold PBS. Then cells were lysed in 1% Triton lysis buffer (50 mmol/L Tris-HCl, pH 7.4, 10 mmol/L EDTA, 100 mmol/L NaF, 150 mmol/L NaCl, 1% Triton X-100, 1 mmol/L PMSF 1 mmol/L Na3VO4 and 2 μg/mL aprotinin). After sonication and centrifugation, samples were quantified with the Lowry method. Next, all the protein samples were boiled at 95 °C for 5 min with 3× sampling buffer. After that, all the lysate samples were resolved by SDS polyacrylamide gel electrophoresis (SDS-PAGE) and followed by western blotting which means electronically transferred to nitrocellulose membranes. […] After washing for another four times, the protein bands were detected with enhanced chemiluminescence reagent (SuperSignal Western Pico Chemiluminescent Substrate; Pierce, Rockford, IL, USA) and visualised with the Electrophoresis Gel Imaging Analysis System (DNR Bio-Imaging Systems, Jerusalem, Israel).
Cells were incubated with DMSO or AZ304 for 75 min and p-ERK levels were determined using a p-ERK antibody based ELISA. […] Cells were incubated with DMSO or AZ304 (±EGF) for 75 min and p-ERK levels were determined using a p-ERK antibody based ELISA. […]

[5] = tested on: RKO, HT-29, DiFi and Caco-2 cells; experiment: Western blot analysis in selected CRC cell lines; assay type: cell-based, human; conditions: four CRC cell lines
Method: For western-blotting in A375, A549 and MC-F7 cell lines, the detailed method was described in ref.[18] […] For western-blot in selected CRC cell lines, the cells were collected after treatment for indicated time and washed twice with cold PBS. Then cells were lysed in 1% Triton lysis buffer (50 mmol/L Tris-HCl, pH 7.4, 10 mmol/L EDTA, 100 mmol/L NaF, 150 mmol/L NaCl, 1% Triton X-100, 1 mmol/L PMSF 1 mmol/L Na3VO4 and 2 μg/mL aprotinin). After sonication and centrifugation, samples were quantified with the Lowry method. Next, all the protein samples were boiled at 95 °C for 5 min with 3× sampling buffer. After that, all the lysate samples were resolved by SDS polyacrylamide gel electrophoresis (SDS-PAGE) and followed by western blotting which means electronically transferred to nitrocellulose membranes. After blocking with 5% skim milk in TBST buffer (10 mM Tris-HCl pH 7.4, 150 mM NaCl, 0.1% Tween 20) at room temperature for 1 h, the blots were incubated with indicated antibodies shaking for 2 h, then overnight at 4 °C. Then the blots were washed four times with TBST buffer, and then incubated with secondary antibodies for 30 min at room temperature. After washing for another four times, the protein bands were detected with enhanced chemiluminescence reagent (SuperSignal Western Pico Chemiluminescent Substrate; Pierce, Rockford, IL, USA) and visualised with the Electrophoresis Gel Imaging Analysis System (DNR Bio-Imaging Systems, Jerusalem, Israel).
Two V600E mutant BRAF cell lines (RKO, HT-29) and two wild-type BRAF cell lines (DiFi, Caco-2) were treated with DMSO or increasing concentrations of AZ304 (0, 0.1, 1, 10, 100 μM), for 48 h (a) and 72 h (b). Viable cells were determined by MTT assay. c EdU incorporation assay. Four cells lines from (a) were treated with DMSO or indicated AZ304 for 24 h, followed by incubation with EdU and Hoechst in sequence. Hoechst 33342 (blue) and EdU (red) represent cell nuclei and nuclei of proliferative cells, respectively. The percentages of the EdU-positive cells are presented (right). Student’s t-tests were used for statistical analyses. Data are plotted as mean ± SD. *P < 0.05 vs. control; **P < 0.01 vs. control. d These four cells lines from (a) were treated with DMSO or 2 uM AZ304 for 6 h. Expression levels of phosphorylation ERK were analysed by Western blot. e BRAF mutant cell line RKO, and BRAF wild type cell line Caco-2 were treated with DMSO or 2 uM AZ304 for the indicated times. Expression levels of phosphorylation ERK were analysed by Western blot. […] Cell viability was determined by MTT assay

[6] = target: FGFR (Homo sapiens, UniProt P11362); experiment: Sandwich ELISA kinase assay; assay type: biochemical; conditions: ATP Km
FGFR, sequence (P11362 22-822): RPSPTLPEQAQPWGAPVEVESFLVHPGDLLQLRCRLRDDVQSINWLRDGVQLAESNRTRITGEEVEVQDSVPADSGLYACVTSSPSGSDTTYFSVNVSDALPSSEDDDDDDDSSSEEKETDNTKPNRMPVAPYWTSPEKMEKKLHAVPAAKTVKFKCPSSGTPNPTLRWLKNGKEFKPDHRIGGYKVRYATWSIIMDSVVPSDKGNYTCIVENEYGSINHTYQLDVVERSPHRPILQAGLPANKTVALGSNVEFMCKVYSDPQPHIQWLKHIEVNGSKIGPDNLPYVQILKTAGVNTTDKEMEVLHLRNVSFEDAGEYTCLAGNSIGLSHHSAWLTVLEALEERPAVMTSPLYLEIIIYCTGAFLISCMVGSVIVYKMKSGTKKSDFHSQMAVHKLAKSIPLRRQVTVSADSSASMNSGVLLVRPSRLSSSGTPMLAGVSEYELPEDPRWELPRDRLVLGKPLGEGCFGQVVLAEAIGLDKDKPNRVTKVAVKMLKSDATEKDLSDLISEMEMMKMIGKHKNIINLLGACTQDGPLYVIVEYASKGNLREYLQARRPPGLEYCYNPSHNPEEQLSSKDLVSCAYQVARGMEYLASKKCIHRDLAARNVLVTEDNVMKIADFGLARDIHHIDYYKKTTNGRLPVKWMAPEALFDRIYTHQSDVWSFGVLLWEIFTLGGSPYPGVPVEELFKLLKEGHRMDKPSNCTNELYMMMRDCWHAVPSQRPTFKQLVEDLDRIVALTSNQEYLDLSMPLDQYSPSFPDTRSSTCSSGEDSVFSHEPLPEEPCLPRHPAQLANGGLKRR
Method: as §1

[7] = target: SRC (Homo sapiens, UniProt P12931); experiment: Sandwich ELISA kinase assay; assay type: biochemical; conditions: ATP Km
SRC, sequence (P12931 whole entry, species assumed): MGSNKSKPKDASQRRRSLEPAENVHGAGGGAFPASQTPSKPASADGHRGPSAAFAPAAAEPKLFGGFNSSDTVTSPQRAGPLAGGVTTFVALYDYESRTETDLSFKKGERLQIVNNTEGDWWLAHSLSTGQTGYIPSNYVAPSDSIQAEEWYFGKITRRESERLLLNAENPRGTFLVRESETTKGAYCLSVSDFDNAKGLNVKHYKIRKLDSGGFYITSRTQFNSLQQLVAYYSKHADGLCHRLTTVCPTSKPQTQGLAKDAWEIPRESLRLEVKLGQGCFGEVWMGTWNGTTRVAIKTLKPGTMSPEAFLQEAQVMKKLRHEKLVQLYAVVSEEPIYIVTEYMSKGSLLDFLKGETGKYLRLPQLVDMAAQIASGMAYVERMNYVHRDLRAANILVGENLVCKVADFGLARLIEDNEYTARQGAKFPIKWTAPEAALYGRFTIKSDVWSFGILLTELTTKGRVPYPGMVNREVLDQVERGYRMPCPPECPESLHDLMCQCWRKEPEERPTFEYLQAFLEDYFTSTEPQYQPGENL
Method: as §1

[8] = target: EGFR (Homo sapiens, UniProt P00533); experiment: Sandwich ELISA kinase assay; assay type: biochemical; conditions: ATP Km
EGFR, sequence (P00533 25-1210, species assumed): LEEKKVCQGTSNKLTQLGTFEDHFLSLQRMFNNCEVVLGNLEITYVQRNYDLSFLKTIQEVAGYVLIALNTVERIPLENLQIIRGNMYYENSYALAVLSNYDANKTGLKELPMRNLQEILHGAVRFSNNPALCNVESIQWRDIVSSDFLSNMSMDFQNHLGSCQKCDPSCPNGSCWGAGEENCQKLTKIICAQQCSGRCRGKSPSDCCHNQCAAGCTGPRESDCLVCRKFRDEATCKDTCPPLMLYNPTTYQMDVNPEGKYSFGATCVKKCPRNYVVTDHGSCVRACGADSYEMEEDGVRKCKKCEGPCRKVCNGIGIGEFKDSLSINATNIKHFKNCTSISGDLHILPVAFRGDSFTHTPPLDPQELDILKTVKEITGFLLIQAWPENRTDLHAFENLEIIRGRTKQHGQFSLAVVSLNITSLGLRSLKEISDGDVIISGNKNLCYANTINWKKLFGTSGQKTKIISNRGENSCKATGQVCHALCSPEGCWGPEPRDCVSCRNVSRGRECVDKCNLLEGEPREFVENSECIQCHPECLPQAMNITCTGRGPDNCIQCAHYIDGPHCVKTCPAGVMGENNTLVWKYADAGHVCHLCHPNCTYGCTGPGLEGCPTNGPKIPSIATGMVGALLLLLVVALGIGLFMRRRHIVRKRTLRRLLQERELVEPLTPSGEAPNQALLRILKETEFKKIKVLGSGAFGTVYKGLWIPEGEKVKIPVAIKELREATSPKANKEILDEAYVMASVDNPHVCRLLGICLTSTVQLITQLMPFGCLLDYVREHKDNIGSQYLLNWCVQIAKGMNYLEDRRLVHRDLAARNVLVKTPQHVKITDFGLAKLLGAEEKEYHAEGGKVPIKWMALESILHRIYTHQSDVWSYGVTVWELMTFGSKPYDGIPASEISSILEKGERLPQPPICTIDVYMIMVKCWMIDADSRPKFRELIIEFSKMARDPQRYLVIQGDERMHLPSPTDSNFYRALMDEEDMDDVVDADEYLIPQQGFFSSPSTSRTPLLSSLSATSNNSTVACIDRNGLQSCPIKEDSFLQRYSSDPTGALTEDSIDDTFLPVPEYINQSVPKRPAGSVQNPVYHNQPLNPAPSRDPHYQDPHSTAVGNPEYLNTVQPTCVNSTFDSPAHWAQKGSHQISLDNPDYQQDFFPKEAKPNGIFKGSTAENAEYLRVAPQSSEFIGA
Method: as §1

[9] = target: CSK (Homo sapiens, UniProt P41240); experiment: Sandwich ELISA kinase assay; assay type: biochemical; conditions: ATP Km
CSK, sequence (P41240 whole entry, species assumed): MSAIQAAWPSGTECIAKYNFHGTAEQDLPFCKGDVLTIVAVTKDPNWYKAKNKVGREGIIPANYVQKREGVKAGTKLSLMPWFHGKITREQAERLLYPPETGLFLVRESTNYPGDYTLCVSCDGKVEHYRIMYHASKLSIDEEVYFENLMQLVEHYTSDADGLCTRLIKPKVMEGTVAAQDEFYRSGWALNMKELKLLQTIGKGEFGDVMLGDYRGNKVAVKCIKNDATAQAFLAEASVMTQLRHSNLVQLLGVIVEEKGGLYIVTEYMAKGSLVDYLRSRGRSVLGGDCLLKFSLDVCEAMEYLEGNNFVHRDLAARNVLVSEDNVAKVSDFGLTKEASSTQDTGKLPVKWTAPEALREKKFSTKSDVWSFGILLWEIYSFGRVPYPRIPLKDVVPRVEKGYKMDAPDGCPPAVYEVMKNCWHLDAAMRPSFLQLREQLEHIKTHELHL
Method: as §1

[10] = target: IGF1R (Homo sapiens, UniProt P08069); experiment: Sandwich ELISA kinase assay; assay type: biochemical; conditions: ATP Km
Method: as §1

[11] = 2 μM AZ304, 10 μg/ml Cetuximab or combination, 36 h

CSF1R, sequence (P07333 20-972, species assumed): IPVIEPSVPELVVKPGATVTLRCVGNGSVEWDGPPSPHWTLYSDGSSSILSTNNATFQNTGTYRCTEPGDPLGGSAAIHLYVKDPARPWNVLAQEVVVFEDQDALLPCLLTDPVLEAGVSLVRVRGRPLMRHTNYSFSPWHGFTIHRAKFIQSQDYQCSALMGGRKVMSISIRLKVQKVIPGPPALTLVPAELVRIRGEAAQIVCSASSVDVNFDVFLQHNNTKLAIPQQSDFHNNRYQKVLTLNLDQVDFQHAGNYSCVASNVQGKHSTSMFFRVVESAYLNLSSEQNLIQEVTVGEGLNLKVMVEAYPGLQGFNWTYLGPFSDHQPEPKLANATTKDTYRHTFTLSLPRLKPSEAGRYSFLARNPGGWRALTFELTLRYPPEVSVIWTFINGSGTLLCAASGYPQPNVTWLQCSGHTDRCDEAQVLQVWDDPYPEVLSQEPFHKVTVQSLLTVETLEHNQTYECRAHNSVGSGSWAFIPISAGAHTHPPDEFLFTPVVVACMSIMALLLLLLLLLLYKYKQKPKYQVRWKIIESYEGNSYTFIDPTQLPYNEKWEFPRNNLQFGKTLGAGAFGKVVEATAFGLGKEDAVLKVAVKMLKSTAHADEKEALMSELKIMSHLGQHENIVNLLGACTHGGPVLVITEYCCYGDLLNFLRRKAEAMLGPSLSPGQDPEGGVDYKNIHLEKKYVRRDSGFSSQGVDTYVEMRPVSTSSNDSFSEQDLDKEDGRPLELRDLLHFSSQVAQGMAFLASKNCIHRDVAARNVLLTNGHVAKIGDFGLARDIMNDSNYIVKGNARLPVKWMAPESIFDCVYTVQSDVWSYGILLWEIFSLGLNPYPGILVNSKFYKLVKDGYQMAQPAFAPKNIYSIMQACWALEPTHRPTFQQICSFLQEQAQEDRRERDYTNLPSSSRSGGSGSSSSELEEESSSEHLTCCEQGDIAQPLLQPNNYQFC

COc1ccc2c(Nc3cc(NC(=O)c4cccc(C(C)(C)C#N)c4)ccc3C)ncnc2c1 [AZ304]
IC50 [1]: 0.035 µM
IC50 [2]: > 10 µM
IC50 [3]: 6.4 µM
effect on p-p38 [4]: potently inhibited p-p38
BRAF, p-ERK, p-AKT and p-mTOR levels [5, 11]: decreased
EGFR phosphorylation (p-EGFR) [5, 11]: increased
phosphorylated SRC and STAT3 [5, 11]: relatively reduced expression levels
cleaved caspase-9, caspase-3 and PARP ([5]; 2 μM AZ304, 10 μg/ml Cetuximab or combination, 48 h): overtly increased levels
p-ERK levels ([5]; 2 uM AZ304, 6 h): reduced p-ERK levels in all four CRC cell lines
IC50 [6]: > 10 µM
IC50 [7]: > 10 µM
IC50 [8]: > 10 µM
IC50 [9]: 7.05 µM
IC50 [10]: > 10 µM
